Measurements taken from PMC11242993, “Evaluation of the Therapeutic Potential of Sulfonyl Urea Derivatives as Soluble Epoxide Hydrolase (sEH) Inhibitors” (Molecules, 2024).

What was measured:
mouse recombinant sEH = molecular target: T1, mouse recombinant sEH (Mus musculus, UniProt P34914); assay: Fluorescence-based sEH activity assay (PHOME substrate), mouse enzyme; type: biochemical; details: dose-dependent assay; read-out: Mouse sEH Inhibition IC50
T1 sequence (P34914 1-554): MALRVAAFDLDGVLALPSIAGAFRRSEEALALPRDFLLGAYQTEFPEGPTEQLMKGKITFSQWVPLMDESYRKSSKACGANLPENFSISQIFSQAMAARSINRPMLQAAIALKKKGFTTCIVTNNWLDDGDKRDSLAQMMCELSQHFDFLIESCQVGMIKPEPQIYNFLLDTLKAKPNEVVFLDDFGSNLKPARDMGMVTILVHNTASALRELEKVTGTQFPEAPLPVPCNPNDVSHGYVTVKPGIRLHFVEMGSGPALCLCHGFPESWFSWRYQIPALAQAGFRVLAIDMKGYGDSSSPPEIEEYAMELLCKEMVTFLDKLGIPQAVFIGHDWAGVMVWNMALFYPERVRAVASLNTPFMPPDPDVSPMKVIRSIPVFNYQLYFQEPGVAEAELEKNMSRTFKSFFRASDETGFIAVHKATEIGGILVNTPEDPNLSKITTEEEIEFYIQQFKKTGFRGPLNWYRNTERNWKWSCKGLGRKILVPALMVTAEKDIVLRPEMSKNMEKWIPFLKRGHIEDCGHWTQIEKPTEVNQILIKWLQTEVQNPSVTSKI
Procedure: A fluorescence-based sEH activity assay provided a convenient method for screening human epoxide hydrolase inhibitors. The assay utilized (3-Phenyl-oxiranyl)-acetic acid cyano-(6-methoxy-naphthalen-2-yl)-methyl ester (PHOME) as a substrate. […] The inhibitory function of the compounds on sEH activity was tested as detailed in the product manual from Cayman Chemical. Briefly, 3 mL sEH assay buffer (10×) was diluted with 27 mL HPLC-grade water. This final assay buffer, 25 mM bis-tris (pH 7.0), was used in the assay and for the dilution of the soluble epoxide hydrolase (sEH) enzyme. Amounts of 12 μL each of human and mouse recombinant sEH were thawed on ice. Prior to assaying, 588 μL cold assay buffer was added directly to the enzyme vial. An amount of 190 μL assay buffer and 5 μL solvent (40% DMSO in assay buffer) were added to the background wells. In the 100% initial activity wells, 185 μL assay buffer, 5 μL sEH, and 5 μL solvent were added. In inhibitor wells, 185 μL assay buffer, 5 μL solution of the synthesized compounds, and 5 μL of recombinant enzyme solution were added. To start the reaction, 5 μL of PHOME was added to each well at a final concentration of 0.25 mM. The microwell plate was shaken carefully for 10 s and covered with a plate cover.
Average fluorescence (AF) of the background wells and 100% initial activity in the wells and of each of the inhibitors were determined. The background AF was subtracted from the 100% initial activity and inhibitor AFs. The % sEH activity is calculated as (inhbitited AF/% 100 initial activity) × 100.
Multiple concentrations of the inhibitors were tested followed by plotting of the percent activity as a function of inhibitor concentration to determine the IC50 values.

Caco-2 permeability = type: in vitro ADME; details: human, Caco-2, pH 7.4
Procedure: Caco-2 cells were cultured in 75 cm^2 flasks to 80–90% confluence according to the ATCC and Millipore recommendations in a humidified atmosphere at 37 °C and 5% CO2. Cells were detached with a trypsin/EDTA solution, resuspended in the complete medium containing DMEM high glucose ([…]) with L-glutamine (4 mM) supplemented with 10% heat-inactivated Fetal Bovine Serum, 1% non-essential amino acids, and 730 nM puromycin, and seeded at a density of 5 × 10^5 cells in a 75 cm^2 flask. After 5 days, cells were trypsinized and resuspended in the complete medium to a final concentration of 600 × 10^3 cells/mL. Of the cell suspension, 400 µL was added to each well of an HTS 24-Multiwell Insert System and 25 mL of prewarmed complete medium was added to the feeder tray. Caco-2 cells were incubated in the Multiwell Insert System for 6–10 days before the transport experiments. The medium in the filter plate and feeder tray was refreshed every other day. Prior to the transport experiment, the integrity of the monolayer was verified by measuring the transepithelial electrical resistance (TEER) for every well using a Millicell-ERS system ohm meter. The final TEER values were within the range of 150–600 Ω × cm^2, as required for the assay conditions. The 24-well insert plate was removed from its feeder plate and placed in a new sterile 24-well transport analysis plate. The inserts were washed with PBS after medium aspiration. Ketoprofen, atenolol, digoxin, and quinidine were used as reference compounds.
To determine transport rates in the basolateral (B)-to-apical (A) direction, 1000 μL of the test compound solutions was added into the wells of the transport analysis plate, and the wells in the filter plate were filled with 300 μL of buffer (apical compartment).
The effect of the inhibitor on the Pgp-mediated transport of the tested compounds was assessed by determining the bidirectional transport in the presence or absence of verapamil. The Caco-2 cells were preincubated for 30 min at 37 °C with 100 μM of verapamil in both apical and basolateral compartments. After removal of the preincubation medium, the test compounds with verapamil (100 μM) in transport buffer were added in donor wells, while the receiver wells were filled with the appropriate volume of transport buffer with 100 μM of verapamil. The final amounts of test and reference compounds were 10 μM each. The plates were incubated for 90 min at 37 °C under continuous shaking at 100 rpm. Aliquots of 75 μL were taken from the donor and receiver compartments for LC–MS/MS analysis. All samples were mixed with 2 volumes of acetonitrile followed by protein sedimentation by centrifuging at 10,000 rpm for 10 min. Supernatants were analyzed using the HPLC system coupled with a tandem mass spectrometer.

C57BL/6J male mice = assay: Hot plate model; type: in vivo; details: 10 mg/kg i.p.
Procedure: Thermal nociception in the hot plate test was assessed with a commercially available apparatus (Hotplate Analgesia Meter, Columbus Instruments) consisting of a metal plate to a constant temperature of 55.0 ± 0.1 °C. Mice were put into the hot plate testing instrument to adapt for at least 15 min. The device was connected to a manually operated timer that recorded the amount of time the mouse spent on the heated surface before showing signs of nociception (e.g., licked its paws or jumped), the cut-off time was 60 s. The baseline (basic pain threshold, the response was more than 25 s, and the jumping mice were excluded.) was calculated as the mean of three readings recorded before testing at intervals of 15 min. The time course of latency was then determined at 15, 30, 45, 60, 90, and 120 min after compound treatment. Data were analyzed as time-course curves of the percentage of maximum effect MPE% = (post drug latency − baseline latency) × 100/(cut-off time − baseline latency). C57BL/6J male mice obtained from The Jackson Laboratory (Bar Harbor, ME, USA) weighing 28 g were used for the hot plate test. Animal procedures were conducted following the rules and regulations of the Institutional Animal Care and Use Committee of the National Institute on Alcohol Abuse and Alcoholism (NIAAA) under the protocols of LPS-GK1.

SMILES | IC50 (mouse recombinant sEH) | Papp A→B at 90 min, 10 µM (Caco-2 permeability; A to B, read-out: Caco-2 Permeability Apical to Basal (Papp)) | Papp B→A at 90 min, 10 µM (Caco-2 permeability; B to A, read-out: Caco-2 Permeability Basal to Apical (Papp)) | analgesic effect in hot plate assay (C57BL/6J male mice)
O=C(NC12CC3CC(CC(C3)C1)C2)NS(=O)(=O)c1ccc(OC(F)(F)F)cc1 [Compound 4f] | 290 nM | 14.9 ×10⁻⁶ cm/s | 12.6 ×10⁻⁶ cm/s | none of the sEH inhibitors, including AUDA, showed any analgesic effect
O=C(NC12CC3CC(CC(C3)C1)C2)NS(=O)(=O)c1ccc2ccccc2c1 [Compound 4l] | 190 nM |  |  | none of the sEH inhibitors, including AUDA, showed any analgesic effect
